The values that follow come from US7868037B2 (PTC Therapeutics, Inc., priority 2004, dated 2011).

Where two headings read alike, the source gives them in different places.

One series relates to HCV replicon. The series is described as follows: microbe, parasite or virus in culture. In kind it is cell-based, hepatitis C virus. The note with it: Hepatitis C virus.
Series [1] deals with cap-dependent translation (pLuc). The series is described as follows: Western blot of Fluc reporter protein in pLuc cells. It counts as cell-based, human. The following applies: 20 hours, data not shown.

Take `CCn1c(COc2ccccc2)c(C#N)c2ccc(OC)cc21` [Compound 99, 1-ethyl-6-methoxy-2-phenoxymethyl-1H-indole-3-carbonitrile]: the melting point is 123.4 to 123.8 °C. Further, the IC50 in the series on HCV replicon (read-out: Replicon IC50 μM) was > 2 µM. The compound `CCn1c(-c2ccc(N3CCCS3(=O)=O)cc2)c(C#N)c2ccc(OC(C)C)cc21` [Compound 666, 2-[4-(1,1-dioxo-1λ^6-isothiazolidin-2-yl)phenyl]-1-ethyl-6-isopropoxy-1H-indole-3-carbonitrile] returned a melting point of 207 to 209 °C. Further, the concentration for half-maximal inhibition (IC50) with HCV replicon (read-out: Replicon IC50 μM) was < 0.5 µM. For `COC(=O)c1cccc(-c2noc(-c3[nH]c4cc(OC)ccc4c3C#N)n2)c1` [Compound 226, methyl 3-[5-(3-cyano-6-methoxy-1H-indol-2-yl)-[1,2,4]oxadiazol-3-yl]benzoate] the same measures were 294 to 295 °C and > 2 µM. For `CCn1cc(C#N)c2cc(-c3ccsc3)ccc21` [Compound 141, 1-ethyl-5-thiophen-3-yl-1H-indole-3-carbonitrile] the same measures were 145 to 146 °C and > 2 µM.

As to `CCn1c(-c2ccc(O)c(NC(=O)CCl)c2)c(C#N)c2ccc(OC)cc21` [Compound 333, 2-chloro-N-[5-(3-cyano-1-ethyl-6-methoxy-1H-indol-2-yl)-2-hydroxyphenyl]acetamide], the melting point lay within 237 to 240 °C. Also, in the series on HCV replicon (read-out: Replicon IC50 μM), the IC50 fell in the range of 0.5 to 2 µM. Take `CCCOC(=O)Nc1ccc2c(C#N)cn(-c3ccc(OC)cc3)c2c1` [Compound 97, [3-Cyano-1-(4-methoxyphenyl)-1H-indol-6-yl]-carbamic acid propyl ester]: the melting point was 164 to 167 °C. The concentration for half-maximal inhibition (IC50) with HCV replicon (read-out: Replicon IC50 μM) was > 2 µM.

`CCOC(=O)c1c(C)n(-c2ccc(OC)cc2)c2ccc(OC(F)F)cc12` [Compound 49, ethyl 5-difluoromethoxy-1-(4-methoxyphenyl)-2-methyl-1H-indole-3-carboxylate] registered a melting point of 89 to 90 °C. Moreover, the IC50 in the series with HCV replicon (read-out: Replicon IC50 μM) was > 2 µM.

As to `COc1ccc(C[C@H](N)C(=O)N[C@H]2[C@@H](O)[C@H](n3cnc4c(N(C)C)ncnc43)O[C@@H]2CO)cc1` [puromycin], the “cap-dependent protein production (pLuc) in Western blot” value in series [1] is given as “inhibited”.

Take `CCn1c(-c2ccc(N(C)S(C)(=O)=O)cc2)c(C#N)c2ccc(OC)cc21` [Compound 180, N-[4-(3-cyano-1-ethyl-6-methoxy-1H-indol-2-yl)-phenyl]-N-methyl methanesulfonamide]: the melting point is 170 to 171 °C. Also, the concentration for half-maximal inhibition (IC50) in the series on HCV replicon (read-out: Replicon IC50 μM) was in the range of 0.5 to 2 µM. In the same order, the values of `CCn1c(-c2cccc(NC(N)=S)c2)c(C#N)c2ccc(OC)cc21` [Compound 767, [3-(3-cyano-1-ethyl-6-methoxy-1H-indol-2-yl)-phenyl]-thiourea] are 204 to 205 °C and < 0.5 µM. The compound `CCn1c(C#Cc2ccc(NC(C)=O)cc2)c(C#N)c2ccc(OC)cc21` [Compound 138, N-[4-(3-cyano-1-ethyl-6-methoxy-1H-indol-2-ylethynyl)-phenyl]-acetamide] registered a melting point of 235 to 239 °C. Further, the concentration for half-maximal inhibition (IC50) in the series on HCV replicon (read-out: Replicon IC50 μM) lay within 0.5 to 2 µM. As for `CCn1c(I)c(C#N)c2cc([N+](=O)[O-])c(OC)cc21` [Compound 499, 1-ethyl-2-iodo-6-methoxy-5-nitro-1H-indole-3-carbonitrile], the melting point was in the range of 235 to 250 °C. Moreover, the IC50 with HCV replicon (read-out: Replicon IC50) is < 0.5 µM. For `CCn1c(-c2ccc(N3CCCS3(=O)=O)cc2)c(C#N)c2ccc(OCCN3CCOCC3)cc21` [Compound 729, 2-[4-(1,1-dioxo-1λ^6-isothiazolidin-2-yl)-phenyl]-1-ethyl-6-(2-morpholin-4-yl-ethoxy)-1H-indole-3-carbonitrile], the melting point fell in the range of 213 to 217 °C. Besides, in the series with HCV replicon (read-out: Replicon IC50 μM), the half-inhibitory concentration (IC50) was > 2 µM. In turn, `CCn1c(N2CCN(S(=O)(=O)C3CC3)CC2)c(C#N)c2ccc(C(F)(F)F)cc21` [Compound 842, 2-[4-(cyclopropylsulfonyl)piperazin-1-yl]-1-ethyl-6-(trifluoromethyl)-1H-indole-3-carbonitrile] gave a melting point of 170 to 171 °C. Moreover, the half-maximal inhibitory concentration (IC50) with HCV replicon (read-out: Replicon IC50 μM) was > 2 µM. The compound `CCn1c(-c2ccc(OCCN3CCOCC3)cc2)c(C#N)c2ccc(OC)cc21` [Compound 261, 1-ethyl-6-methoxy-2-[4-(2-morpholin-4-yl-ethoxy)-phenyl]-1H-indole-3-carbonitrile] came in with a melting point of 138 to 143 °C. The IC50 in the series with HCV replicon (read-out: Replicon IC50 μM) fell in the range of 0.5 to 2 µM. In the same order, the values of `CCn1c(-c2ccc(N(C)S(=O)(=O)CCN3CCOCC3)cc2)c(C#N)c2ccc(OC)cc21` [Compound 668] are 171 to 174 °C and 0.5 to 2 µM. Compound `CCn1c(-c2ccc(OCCN)cc2)c(C#N)c2ccc(OC)cc21` [Compound 267, 2-[4-(2-aminoethoxy)phenyl]-1-ethyl-6-methoxy-1H-indole-3-carbonitrile] had a melting point of 106 to 112 °C. Besides, in the series on HCV replicon (read-out: Replicon IC50 μM), the IC50 was > 2 µM.
